Assay results: ChEMBL document CHEMBL1148496, “Novel alkylpolyaminoguanidines and alkylpolyaminobiguanides with potent antitrypanosomal activity” (Bioorg Med Chem Lett, 2006)
pIC50: −log10 of the molar value.

These compounds were tested against Trypanothione reductase (Trypanosoma cruzi, UniProt P28593) (assay: Inhibition of Trypanosoma cruzi TR).
Chain of Trypanothione reductase (P28593 whole entry): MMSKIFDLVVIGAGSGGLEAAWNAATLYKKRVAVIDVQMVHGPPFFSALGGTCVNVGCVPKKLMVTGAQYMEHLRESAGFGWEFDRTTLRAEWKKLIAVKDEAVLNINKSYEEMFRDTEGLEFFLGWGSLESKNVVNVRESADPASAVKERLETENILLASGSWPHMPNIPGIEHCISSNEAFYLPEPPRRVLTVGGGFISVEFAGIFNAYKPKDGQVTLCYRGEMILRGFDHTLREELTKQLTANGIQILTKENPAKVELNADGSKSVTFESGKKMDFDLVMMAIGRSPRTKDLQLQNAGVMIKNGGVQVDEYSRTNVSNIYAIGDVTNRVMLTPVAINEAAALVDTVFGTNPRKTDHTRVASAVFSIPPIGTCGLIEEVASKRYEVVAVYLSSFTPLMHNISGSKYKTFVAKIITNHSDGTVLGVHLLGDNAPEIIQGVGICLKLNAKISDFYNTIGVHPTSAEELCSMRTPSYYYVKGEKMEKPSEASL

Structure (SMILES)	pIC50
NC(=NCCCNCCCCCCCNCCCN=C(N)NC1CCCCCC1)NC1CCCCCC1	4.75
NC(=NCCCNCCCNCCCN=C(N)NCC(c1ccccc1)c1ccccc1)NCC(c1ccccc1)c1ccccc1	5.44
N=C(NCCCNCCCNCCCNC(=N)NC(=N)NCCC(c1ccccc1)c1ccccc1)NC(=N)NCCC(c1ccccc1)c1ccccc1	5.43
NC(=NCCCNCCCCCCCNCCCN=C(N)NCC(c1ccccc1)c1ccccc1)NCC(c1ccccc1)c1ccccc1	5.33
N=C(NCCCNCCCCCCCNCCCNC(=N)NC(=N)NCC(c1ccccc1)c1ccccc1)NC(=N)NCC(c1ccccc1)c1ccccc1	5.78
N=C(NCCCNCCCNCCCNC(=N)NC(=N)NCC(c1ccccc1)c1ccccc1)NC(=N)NCC(c1ccccc1)c1ccccc1	5.38
N=C(NCCCNCCCCNCCCNC(=N)NCC(c1ccccc1)c1ccccc1)NCC(c1ccccc1)c1ccccc1	5.34
N=C(NCCCNCCCCNCCCNC(=N)NC(=N)NCC(c1ccccc1)c1ccccc1)NC(=N)NCC(c1ccccc1)c1ccccc1	5.56
N=C(NCCCNCCCCNCCCNC(=N)NC(=N)NCCC(c1ccccc1)c1ccccc1)NC(=N)NCCC(c1ccccc1)c1ccccc1	5.53
N=C(NCCCNCCCCCCCNCCCNC(=N)NC(=N)NCCC(c1ccccc1)c1ccccc1)NC(=N)NCCC(c1ccccc1)c1ccccc1	6.02
NC(=NCCCNCCCCCCCNCCCN=C(N)NCCC(c1ccccc1)c1ccccc1)NCCC(c1ccccc1)c1ccccc1	5.65
N=C(NCCCNCCCCNCCCNC(=N)NCCC(c1ccccc1)c1ccccc1)NCCC(c1ccccc1)c1ccccc1	5.53
N=C(NCCCNCCCNCCCNC(=N)NCCC(c1ccccc1)c1ccccc1)NCCC(c1ccccc1)c1ccccc1	5.29
NC(=NCCCNCCCCCCCNCCCN=C(N)NCc1ccccc1)NCc1ccccc1	4.16

Each compound was assayed on Trypanosoma brucei brucei (assay: Antitrypanosomal activity against Trypanosoma brucei brucei).
Type: functional, organism-based

Structure (SMILES)	pIC50
NC(=NCCCNCCCCCCCNCCCN=C(N)NC1CCCCCC1)NC1CCCCCC1	6.74
NC(=NCCCNCCCNCCCN=C(N)NCC(c1ccccc1)c1ccccc1)NCC(c1ccccc1)c1ccccc1	5.69
N=C(NCCCNCCCNCCCNC(=N)NC(=N)NCCC(c1ccccc1)c1ccccc1)NC(=N)NCCC(c1ccccc1)c1ccccc1	5.75
NC(=NCCCNCCCCCCCNCCCN=C(N)NCC(c1ccccc1)c1ccccc1)NCC(c1ccccc1)c1ccccc1	6.30
N=C(NCCCNCCCCCCCNCCCNC(=N)NC(=N)NCC(c1ccccc1)c1ccccc1)NC(=N)NCC(c1ccccc1)c1ccccc1	6.35
N=C(NCCCNCCCNCCCNC(=N)NC(=N)NCC(c1ccccc1)c1ccccc1)NC(=N)NCC(c1ccccc1)c1ccccc1	6.74
N=C(NCCCNCCCCNCCCNC(=N)NCC(c1ccccc1)c1ccccc1)NCC(c1ccccc1)c1ccccc1	5.47
N=C(NCCCNCCCCNCCCNC(=N)NC(=N)NCC(c1ccccc1)c1ccccc1)NC(=N)NCC(c1ccccc1)c1ccccc1	5.98
N=C(NCCCNCCCCNCCCNC(=N)NC(=N)NCCC(c1ccccc1)c1ccccc1)NC(=N)NCCC(c1ccccc1)c1ccccc1	6.72
N=C(NCCCNCCCCCCCNCCCNC(=N)NC(=N)NCCC(c1ccccc1)c1ccccc1)NC(=N)NCCC(c1ccccc1)c1ccccc1	6.21
NC(=NCCCNCCCCCCCNCCCN=C(N)NCCC(c1ccccc1)c1ccccc1)NCCC(c1ccccc1)c1ccccc1	6.21
N=C(NCCCNCCCCNCCCNC(=N)NCCC(c1ccccc1)c1ccccc1)NCCC(c1ccccc1)c1ccccc1	5.62
N=C(NCCCNCCCNCCCNC(=N)NCCC(c1ccccc1)c1ccccc1)NCCC(c1ccccc1)c1ccccc1	5.71
NC(=NCCCNCCCCCCCNCCCN=C(N)NCc1ccccc1)NCc1ccccc1	7.05

These compounds were tested against T1, Glutathione reductase, mitochondrial (Homo sapiens, UniProt P00390) (assay: Inhibition of human glutathione reductase).
T1 sequence (P00390 whole entry): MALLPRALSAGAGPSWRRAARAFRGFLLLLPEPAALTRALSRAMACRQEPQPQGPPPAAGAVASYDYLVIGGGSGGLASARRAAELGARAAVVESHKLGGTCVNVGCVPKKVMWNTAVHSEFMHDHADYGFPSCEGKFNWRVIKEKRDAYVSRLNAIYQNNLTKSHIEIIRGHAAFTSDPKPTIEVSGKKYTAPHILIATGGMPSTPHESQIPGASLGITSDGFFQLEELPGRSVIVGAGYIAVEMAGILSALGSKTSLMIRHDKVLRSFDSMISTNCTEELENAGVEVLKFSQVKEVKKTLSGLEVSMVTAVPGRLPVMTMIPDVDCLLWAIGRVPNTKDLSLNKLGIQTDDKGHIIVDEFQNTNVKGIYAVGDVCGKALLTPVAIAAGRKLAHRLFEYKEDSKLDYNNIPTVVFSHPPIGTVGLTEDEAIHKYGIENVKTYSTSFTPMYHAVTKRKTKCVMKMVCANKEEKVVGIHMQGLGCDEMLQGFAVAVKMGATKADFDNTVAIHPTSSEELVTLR

Structure (SMILES)	pIC50
NC(=NCCCNCCCCCCCNCCCN=C(N)NC1CCCCCC1)NC1CCCCCC1	< 4.00
NC(=NCCCNCCCNCCCN=C(N)NCC(c1ccccc1)c1ccccc1)NCC(c1ccccc1)c1ccccc1	< 4.00
N=C(NCCCNCCCNCCCNC(=N)NC(=N)NCCC(c1ccccc1)c1ccccc1)NC(=N)NCCC(c1ccccc1)c1ccccc1	< 4.00
NC(=NCCCNCCCCCCCNCCCN=C(N)NCC(c1ccccc1)c1ccccc1)NCC(c1ccccc1)c1ccccc1	< 4.00
N=C(NCCCNCCCCCCCNCCCNC(=N)NC(=N)NCC(c1ccccc1)c1ccccc1)NC(=N)NCC(c1ccccc1)c1ccccc1	< 4.00
N=C(NCCCNCCCNCCCNC(=N)NC(=N)NCC(c1ccccc1)c1ccccc1)NC(=N)NCC(c1ccccc1)c1ccccc1	< 4.00
N=C(NCCCNCCCCNCCCNC(=N)NCC(c1ccccc1)c1ccccc1)NCC(c1ccccc1)c1ccccc1	< 4.00
N=C(NCCCNCCCCNCCCNC(=N)NC(=N)NCC(c1ccccc1)c1ccccc1)NC(=N)NCC(c1ccccc1)c1ccccc1	< 4.00
N=C(NCCCNCCCCNCCCNC(=N)NC(=N)NCCC(c1ccccc1)c1ccccc1)NC(=N)NCCC(c1ccccc1)c1ccccc1	< 4.00
N=C(NCCCNCCCCCCCNCCCNC(=N)NC(=N)NCCC(c1ccccc1)c1ccccc1)NC(=N)NCCC(c1ccccc1)c1ccccc1	< 4.00
NC(=NCCCNCCCCCCCNCCCN=C(N)NCCC(c1ccccc1)c1ccccc1)NCCC(c1ccccc1)c1ccccc1	< 4.00
N=C(NCCCNCCCCNCCCNC(=N)NCCC(c1ccccc1)c1ccccc1)NCCC(c1ccccc1)c1ccccc1	< 4.00
N=C(NCCCNCCCNCCCNC(=N)NCCC(c1ccccc1)c1ccccc1)NCCC(c1ccccc1)c1ccccc1	< 4.00
NC(=NCCCNCCCCCCCNCCCN=C(N)NCc1ccccc1)NCc1ccccc1	< 4.00
